Measurements: patent publication US12195427B2, “MASP-2 inhibitors and methods of use” (priority 2018, dated 2025)
Where a name gives a salt, the structure may show the parent alone.

Experiments:
MASP-2 CCP2-SP = MASP-2 CCP2-SP (Homo sapiens (Human), UniProt O00187); experiment: MASP-2 co-crystallization, X-ray crystallography and structure analysis (H-bonds, van der Waals contacts); design: van der Waals contact distance, MASP-2 HIS 483 atom CD2 / van der Waals contact distance, MASP-2 HIS 483 atom NE2 / van der Waals contact distance, SER 654 C to compound atom / van der Waals contact distance, SER 654 O to compound atom / van der Waals contact distance, TRP 655 C to compound atom / van der Waals contact distance, MASP-2 GLY 528 atom CA / van der Waals contact distance TRP 655 atom CZ3 / van der Waals contact distance TRP 655 atom N / van der Waals contact distance TRP 655 atom CE3 / van der Waals contact distance GLY 656 atom C / van der Waals contact distance GLY 656 atom CA / van der Waals contact distance GLY 656 atom O / van der Waals contact distance, MASP-2 TYR 607 atom CD1 / van der Waals contact distance, MASP-2 PRO 606 atom O / d(C3,CA1) / d(CA1,N1)2 / d(H4,O1) / d(H4,O2) / d(O1,O2) / d(CA1,O2) / d(CA6,O1) / d(CA6,O2) / d(CA1,C5) / d(O2,H3) / d(N2,C2) / d(CA5,N2) / d(N2,C4) / d(N2,C6) / d(N2,CA3) / d(N2,O3) / d(O4,H2): unit not given beside the values; conditions: for H-bond distance to MASP-2 GLY 656 atom N: GLY 656 N; for H-bond distance to MASP-2 GLY 656 atom O: GLY 656 O; for H-bond distance to MASP-2 SER 654 atom O: SER 654 O;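 as to Ligand-pharmacophore element distance, pharmacophore element C2: distance from averaged pharmacophore element to bound ligand; missing value means element absent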;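 as to Ligand-pharmacophore element distance, pharmacophore element C3: distance from averaged pharmacophore element to bound ligand; missing value means element absent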;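 as to Ligand-pharmacophore element distance, pharmacophore element C4: distance from averaged pharmacophore element to bound ligand; missing value means element absent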;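 as to Ligand-pharmacophore element distance, pharmacophore element C5: distance from averaged pharmacophore element to bound ligand; missing value means element absent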
How it was run: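 Human MASP-2 CCP2-SP (± 6His) expressed in E. coli and crystallized; crystals soaked in crystallization solution containing inhibitor, cryoprotected with 20% glycerol or frozen directly. Synchrotron data at 1.0 wavelength; molecular replacement from 1Q3X, partial refinement; one ligand pose analyzed; LigPlot+ contacts may include H-bonds.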

MASP-2 (CCP1-CCP2-SP) = MASP-2 (CCP1-CCP2-SP) (Homo sapiens (Human), UniProt O00187); experiment: Enzymatic Assay for MASP-2 (fluorogenic substrate); type: biochemical
Lectin Pathway = Lectin Pathway Activation Assay in Human Serum (mannan-coated ELISA, C3c detection); type: biochemical; conditions: 1% human serum
Procedure: Microtiter ELISA plate was coated with mannan from Saccharomyces cerevisiae (Sigma-Aldrich, M7504) for overnight at 4° C. in coating buffer [15 mM Na2CO3, 35 mM NaHCO3].

human α-thrombin = human α-thrombin (Homo sapiens (Human), UniProt P00734); experiment: Enzymatic Assay for Thrombin (Boc-VPR-AMC); type: biochemical
[1] = Table A5-1 pharmacophore: distance between elements, S2/S1 region
[2] = Table A5-2 pharmacophore distance, S3/S4 region
[3] = Table A7-1, between pharmacophore elements of the bound compound
[4] = Table A8-6, nearest protein atom in cell to the left

Sequence of MASP-2 CCP2-SP (O00187 445-686): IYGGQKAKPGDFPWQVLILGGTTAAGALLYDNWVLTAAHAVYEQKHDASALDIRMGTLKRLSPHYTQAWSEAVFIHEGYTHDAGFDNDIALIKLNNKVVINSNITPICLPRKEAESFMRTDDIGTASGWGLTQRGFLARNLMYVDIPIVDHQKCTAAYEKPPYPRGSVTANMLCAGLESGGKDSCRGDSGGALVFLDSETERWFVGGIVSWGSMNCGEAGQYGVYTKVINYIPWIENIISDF
Sequence of MASP-2 CCP2-SP (O00187 364-432 partner): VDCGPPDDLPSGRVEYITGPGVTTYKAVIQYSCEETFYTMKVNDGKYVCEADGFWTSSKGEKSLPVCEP
Sequence of MASP-2 (CCP1-CCP2-SP) (O00187 445-686): as the sequence (O00187 445-686) above

In the case of `C[C@H](NC(=O)[C@H]1C[C@H](c2ccccc2)CN1)C(=O)NCc1ccc2c(N)nccc2c1` [compound 1090], the “H-bond distance to MASP-2 ASP 627 atom OD2” value (MASP-2 CCP2-SP; Table A1 (H-Bonds), ASP 627 OD2) is reported as 2.8, the “H-bond distance to MASP-2 GLY 656 atom N” value (MASP-2 CCP2-SP; Table A1 (H-Bonds)) is reported as 3.3 and the “H-bond distance to MASP-2 GLY 656 atom O” value (MASP-2 CCP2-SP; Table A1 (H-Bonds)) is reported as 2.78. For the same molecule, the “H-bond distance to MASP-2 SER 654 atom O” value (MASP-2 CCP2-SP; Table A1 (H-Bonds)) was 2.96, the “H-bond distance to MASP-2 SER 657 atom OG” value (MASP-2 CCP2-SP; Table A1 (H-Bonds), SER 657 OG) was 2.73 and the “van der Waals contact distance, MASP-2 HIS 483 atom CD2” value (MASP-2 CCP2-SP; Table A2-1) was 3.74. For the same molecule, the “van der Waals contact distance, MASP-2 PHE 529 atom CE1” value (MASP-2 CCP2-SP; Table A2-3) was 3.87, the “van der Waals contact distance, MASP-2 amino acid atom to compound atom” value (MASP-2 CCP2-SP; Table A2-7 continued: CYS 629 (CA)) was 3.89 and the “van der Waals contact distance, MASP-2 amino acid atom to compound atom” value (MASP-2 CCP2-SP; Table A2-8, CYS 629 / ARG 630, AA atoms CB, N, C, O, CA, CB, CD) was 3.9. The “van der Waals contact distance, MASP-2 amino acid atom to compound atom” value (MASP-2 CCP2-SP; Table A2-9, ARG 630, AA atoms CG, CZ) was 3.64, the “van der Waals contact distance, MASP-2 amino acid atom to compound atom” value (MASP-2 CCP2-SP; Table A2-9 second part, ARG 630, AA atoms N, NE, NH1) was 3.85 and the “van der Waals contact distance SER 657 atom C” value (MASP-2 CCP2-SP; Table A2-14, MASP-2 SER 657 C, columns c12-c13 (inferred)) was 3.7. The “Ligand-pharmacophore element distance, pharmacophore element C2” value (MASP-2 CCP2-SP; Table A4-1, element C2) was 0, the “Ligand-pharmacophore element distance, pharmacophore element C3” value (MASP-2 CCP2-SP; Table A4-1, element C3) was 0 and the “Ligand-pharmacophore element distance, pharmacophore element C4” value (MASP-2 CCP2-SP; Table A4-1, element C4) was 0. For the same molecule, the “Ligand-pharmacophore element distance, pharmacophore element C5” value (MASP-2 CCP2-SP; Table A4-1, element C5) was 0, the “Ligand-pharmacophore element distance, pharmacophore element C6” value (MASP-2 CCP2-SP; Table A4-1, element C6) was 0 and the “Ligand-pharmacophore element distance, pharmacophore element C7” value (MASP-2 CCP2-SP; Table A4-1, element C7) was 0. For the same molecule, the “Ligand-pharmacophore element distance, pharmacophore element CA1” value (MASP-2 CCP2-SP; Table A4-1, element CA1) was 0.98, the “Ligand-pharmacophore element distance, pharmacophore element CA2” value (MASP-2 CCP2-SP; Table A4-1, element CA2) was 0 and the “Ligand-pharmacophore element distance, pharmacophore element CA3” value (MASP-2 CCP2-SP; Table A4-1, element CA3) was 0. For the same molecule, the “Ligand-pharmacophore element distance, pharmacophore element CA4” value (MASP-2 CCP2-SP; Table A4-1, element CA4) was 0, the “Ligand-pharmacophore element distance, pharmacophore element CA5” value (MASP-2 CCP2-SP; Table A4-1, element CA5) was 0.91 and the “Ligand-pharmacophore element distance, pharmacophore element CA6” value (MASP-2 CCP2-SP; Table A4-1, element CA6) was 0. The “d(CA1,O1)” value (MASP-2 CCP2-SP; [1]) was 5.59, the “d(CA1,O2)” value (MASP-2 CCP2-SP; [1]) was 5.11 and the “d(H4,O1)” value (MASP-2 CCP2-SP; [1]) was 3.15. The “d(H4,O2)” value (MASP-2 CCP2-SP; [1]) was 3.68, the “d(O1,O2)” value (MASP-2 CCP2-SP; [1]) was 3.38 and the “d(CA5,N2)” value (MASP-2 CCP2-SP; [2]) was 5.09. For the same molecule, the “d(N2,C4)4” value (MASP-2 CCP2-SP; [2]) was 7.94, the “d(O2,H3)” value (MASP-2 CCP2-SP; [2]) was 5.87 and the “d(O2,N2)” value (MASP-2 CCP2-SP; [2]) was 2.72. For the same molecule, the “a(CA1, O1, O2)” value (MASP-2 CCP2-SP; Table A6-1 pharmacophore angle) was 100.34, the “a(O1, O2, H4)” value (MASP-2 CCP2-SP; Table A6-1 pharmacophore angle) was 121.29 and the “a(O1, O2, H3)” value (MASP-2 CCP2-SP; Table A6-2 pharmacophore angle) was 152.05. The “a(O1, O2, N2)” value (MASP-2 CCP2-SP; Table A6-2 pharmacophore angle) was 140.84, the “Pharmacophore torsion angle a(H4, O1, O2, H3)” value (MASP-2 CCP2-SP; [3]) was 91.31 and the “Pharmacophore torsion angle a(H4, O1, O2, N2)” value (MASP-2 CCP2-SP; [3]) was −177.46. For the same molecule, the “Pharmacophore torsion angle a(O1, H4, O2, CA1)” value (MASP-2 CCP2-SP; [3]) was −92.71, the “Pharmacophore torsion angle a(O1, O2, N2, CA5)” value (MASP-2 CCP2-SP; Table A7-2, between pharmacophore elements of the bound compound) was 134.91 and the “Pharmacophore protein distance to MET_658 (first MET_658 column)” value (MASP-2 CCP2-SP; Table A8-6, 6th residue column, nearest protein atom in cell to the left) was 2.69. The “Pharmacophore protein distance to MET_658 (second MET_658 column)” value (MASP-2 CCP2-SP; Table A8-6, 9th residue column, nearest protein atom in cell to the left) was 2.71, the “Pharmacophore protein distance to GLY_528” value (MASP-2 CCP2-SP; [4]) was 3.61 and the “Pharmacophore protein distance to PHE_529” value (MASP-2 CCP2-SP; [4]) was 2.77. The “Pharmacophore protein distance to PRO_608” value (MASP-2 CCP2-SP; [4]) was 3.95, the “Pharmacophore protein distance to SER_611” value (MASP-2 CCP2-SP; [4]) was 2.87 and the “Pharmacophore protein distance to TRP_655” value (MASP-2 CCP2-SP; Table A8-6, pharmacophore elements C6, CA3, O3, H1, nearest protein atom in cell to the left) was 3.50. For the same molecule, the Ki (MASP-2 (CCP1-CCP2-SP)) was under 0.5 µM and the IC50 (Lectin Pathway) was 0.5 to 5 µM.

`C[C@H](NC(=O)[C@H]1C[C@H](Cc2ccccc2)CN1)C(=O)NCc1cnc2c(c1)c(Cl)cn2C` [compound 1450, (2R,4S)-4-Benzyl-N—((S)-1-(((3-chloro-1-methyl-1H-pyrrolo[2,3-b]pyridin-5-yl)methyl)amino)-1-oxopropan-2-yl)pyrrolidine-2-carboxamide Dihydrochloride] was tested, and the “H-bond distance to MASP-2 GLY 656 atom N” value (MASP-2 CCP2-SP; Table A1 (H-Bonds)) was 3.04, the “H-bond distance to MASP-2 GLY 656 atom O” value (MASP-2 CCP2-SP; Table A1 (H-Bonds)) was 2.78 and the “H-bond distance to MASP-2 SER 654 atom O” value (MASP-2 CCP2-SP; Table A1 (H-Bonds)) was 2.97. The “van der Waals contact distance, MASP-2 amino acid atom to compound atom” value (MASP-2 CCP2-SP; Table A2) was 3.44, the “van der Waals contact distance, MASP-2 HIS 483 atom CD2” value (MASP-2 CCP2-SP; Table A2-1) was 3.9 and the “van der Waals contact distance, MASP-2 HIS 483 atom NE2” value (MASP-2 CCP2-SP; Table A2-1) was 3.88. The “van der Waals contact distance, MASP-2 GLY 528 atom CA” value (MASP-2 CCP2-SP; Table A2-2) was 3.89, the “van der Waals contact distance, SER 654 C to compound atom” value (MASP-2 CCP2-SP; Table A2-11) was 3.81 and the “van der Waals contact distance GLY 656 atom CA” value (MASP-2 CCP2-SP; Table A2-13, MASP-2 GLY 656 CA) was 3.75. For the same molecule, the “van der Waals contact distance TRP 655 atom N” value (MASP-2 CCP2-SP; Table A2-13, MASP-2 TRP 655 N) was 3.66 and the Ki (human α-thrombin) was 2.5 to 10 µM.

Work on `Cc1ccc(-c2c[nH]c(C(=O)N[C@@H](C)C(=O)NCc3ccc(C(=N)N)cc3)c2)cc1F` [compound 1235, (S)—N-(1-((4-Carbamimidoylbenzyl)amino)-1-oxopropan-2-yl)-4-(3-fluoro-4-methylphenyl)-1H-pyrrole-2-carboxamide] yielded a Ki (human α-thrombin) of 10 to 25 µM.
